Assay results as given in ChEMBL document CHEMBL3639324, “Meta-substituted phenyl sulfonyl amides of secondary amino acid amides, the production thereof, and use thereof as matriptase inhibitors” (2013).

Molecular target: T1, Suppressor of tumorigenicity 14 protein (Homo sapiens, UniProt Q9Y5Y6)
T1 sequence (Q9Y5Y6 whole entry): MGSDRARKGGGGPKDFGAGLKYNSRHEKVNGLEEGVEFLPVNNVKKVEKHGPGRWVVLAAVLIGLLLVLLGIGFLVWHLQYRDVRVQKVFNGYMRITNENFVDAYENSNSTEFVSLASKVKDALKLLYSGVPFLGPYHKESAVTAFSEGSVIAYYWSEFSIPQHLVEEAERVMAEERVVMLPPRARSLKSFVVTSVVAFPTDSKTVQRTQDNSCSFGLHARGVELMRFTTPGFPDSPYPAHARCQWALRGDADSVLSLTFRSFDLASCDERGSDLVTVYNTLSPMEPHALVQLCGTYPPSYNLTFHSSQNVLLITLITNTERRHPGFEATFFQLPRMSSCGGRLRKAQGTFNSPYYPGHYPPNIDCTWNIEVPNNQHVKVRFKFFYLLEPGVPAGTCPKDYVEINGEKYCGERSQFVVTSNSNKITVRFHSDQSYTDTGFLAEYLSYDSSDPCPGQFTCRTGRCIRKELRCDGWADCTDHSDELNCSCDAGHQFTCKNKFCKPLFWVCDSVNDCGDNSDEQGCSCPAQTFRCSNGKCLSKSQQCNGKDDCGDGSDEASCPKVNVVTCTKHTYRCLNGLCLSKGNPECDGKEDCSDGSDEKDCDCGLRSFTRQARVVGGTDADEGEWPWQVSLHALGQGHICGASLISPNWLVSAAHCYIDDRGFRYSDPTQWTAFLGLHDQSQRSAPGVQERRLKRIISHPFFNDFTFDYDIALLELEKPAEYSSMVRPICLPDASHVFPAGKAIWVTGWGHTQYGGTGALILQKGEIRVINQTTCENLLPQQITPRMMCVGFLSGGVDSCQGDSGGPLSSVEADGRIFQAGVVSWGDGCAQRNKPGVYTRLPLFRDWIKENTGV
Test: Inhibition Assay: Inhibition assay using matriptase enzyme

- Ki: 0.024 µM
SMILES: CNC(=O)CCCC1CCN(C(=O)[C@H](Cc2cccc(C(=N)N)c2)NS(=O)(=O)c2cccc(N3CCNCC3=O)c2)CC1
